What is called inhibition is the relative decrease from the control value, in per cent. The CC50 is the concentration at which the toxic effect on the cells reaches its halfway point.

Inhibition and CC50 data for 23 compounds are collected here from US9540343B2 (Gilead Sciences, Inc., priority 2011, dated 2017).

The test system of one series is HIV-IIIb. Briefly: Test A: Antiviral assay in MT4 cells. The series is classed as cell-based, HIV-1. To be noted: Human immunodeficiency virus 1, IIIB, MT4, 120 h, read-out: % inhibition at 2 μM, percent inhibition of virus-induced cell killing, from dose response curve at 2 uM drug; MT-4 cells infected with HIV-IIIb, 5 days, CellTiter-Glo.
A short description of the next series: in vitro. The method in brief:
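Cytoprotection read-out: CellTiter-Glo chemiluminescence after 5 days at 37 °C of HIV-IIIb-infected MT-4 cells (m.o.i. 0.003) with compound in 10-point 3-fold dilutions, quadruplicate, 10% FBS. Cytotoxicity (CC50) measured identically without virus.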

Where [1] appears, read: human, uninfected MT-4 cells, CC50 (nM), same protocol as Test A, CellTiter-Glo.

With `O=C(Cc1c[nH]c2ccc(F)cc12)NC(Cc1cc(F)cc(F)c1)c1nccnc1-c1ccc(Cl)cc1` (stereo not shown) [Example 459, N-(1-(3-(4-chlorophenyl)pyrazin-2-yl)-2-(3,5-difluorophenyl)ethyl)-2-(5-fluoro-1H-indol-3-yl)acetamide], the inhibition at 2 µM in the series on HIV-IIIb was 28%. The compound also showed a CC50 at 5 days in “in vitro” (setting [1]) of 14200 nM.
Taken in the same sequence, the figures for `NC(=O)c1cc(-c2cccnc2[C@H](Cc2cc(F)cc(F)c2)NC(=O)Cn2cc(C3=CCCCC3)c(C(F)(F)F)n2)ccc1F` [Example 460, (S)-5-(2-(1-(2-(4-cyclohexenyl-3-(trifluoromethyl)-1H-pyrazol-1-yl)acetamido)-2-(3,5-difluorophenyl)ethyl)pyridin-3-yl)-2-fluorobenzamide] were 0% and 8970 nM.
Turning to `CCc1cc(C(F)(F)F)nn1CC(=O)N[C@@H](Cc1cc(F)cc(F)c1)c1ncccc1-c1ccc(F)c(C(N)=O)c1` [Example 461, (S)-5-(2-(2-(3,5-difluorophenyl)-1-(2-(5-ethyl-3-(trifluoromethyl)-1H-pyrazol-1-yl)acetamido)ethyl)pyridin-3-yl)-2-fluorobenzamide], the inhibition at 2 µM in the series with HIV-IIIb came to 25%. The compound also returned a CC50 at 5 days in “in vitro” (setting [1]) of 32000 nM.
The matching figures for `NC(=O)c1cc(-c2cccnc2[C@H](Cc2cc(F)cc(F)c2)NC(=O)Cn2cc(Br)c(C(F)(F)F)n2)ccc1F` [Example 463, (S)-5-(2-(1-(2-(4-bromo-3-(trifluoromethyl)-1H-pyrazol-1-yl)acetamido)-2-(3,5-difluorophenyl)ethyl)pyridin-3-yl)-2-fluorobenzamide]: 11% and 14700 nM.
For the compound `CS(=O)(=O)c1ccc2[nH]cc(CC(=O)N[C@@H](Cc3cc(F)cc(F)c3)c3ncccc3-c3ccc(F)c(C(N)=O)c3)c2c1` [Example 464, (S)-5-(2-(2-(3,5-difluorophenyl)-1-(2-(5-(methylsulfonyl)-1H-indol-3-yl)acetamido)ethyl)pyridin-3-yl)-2-fluorobenzamide], the inhibition at 2 µM with HIV-IIIb is 119%. Moreover, in the series “in vitro” (setting [1]), the CC50 at 5 days was above 53200 nM.
On to `NC(=O)c1cc(-c2cccnc2[C@H](Cc2cc(F)cc(F)c2)NC(=O)Cn2nc(C(F)(F)F)c3c2C2CC2C3=O)ccc1F` (stereo partly drawn) [Example 465B, 5-(2-((1S)-2-(3,5-difluorophenyl)-1-(2-(4-oxo-3-(trifluoromethyl)-4,4-a,5,5a-tetrahydro-1H-cyclopropa[4,5]cyclopenta[1,2-c]pyrazol-1-yl)acetamido)ethyl)pyridin-3-yl)-2-fluorobenzamide], for which the inhibition at 2 µM in the series on HIV-IIIb was 3%. The CC50 at 5 days in “in vitro” (setting [1]) was above 53200 nM.
Turning to `NC(=O)c1cc(-c2cccnc2[C@H](Cc2cc(F)cc(F)c2)NC(=O)Cn2nc(C(F)(F)F)c3c2CCC2(C3)OCCO2)ccc1F` [Example 468D, (S)-5-(2-(2-(3,5-difluorophenyl)-1-(2-(3′-(trifluoromethyl)-6′,7′-dihydrospiro[[1,3]dioxolane-2,5′-indazole]-1′(4′H)-yl)acetamido)ethyl)pyridin-3-yl)-2-fluorobenzamide], in the series with HIV-IIIb, the inhibition at 2 µM came to 14%. Further, the CC50 at 5 days in “in vitro” (setting [1]) was above 53000 nM.
With `NC(=O)c1cc(-c2cccnc2[C@H](Cc2cc(F)cc(F)c2)NC(=O)Cc2n[nH]c3ccccc23)ccc1F` [Example 469, 5-(2-(1-(2-(1H-indazol-3-yl)acetamido)-2-(3,5-difluorophenyl)ethyl)pyridin-3-yl)-2-fluorobenzamide], in the series on HIV-IIIb, the inhibition at 2 µM is 17%. This compound showed a CC50 at 5 days in the series “in vitro” (setting [1]) above 53200 nM.
The matching figures for `Nc1cc(-c2cccnc2[C@H](Cc2cc(F)cc(F)c2)NC(=O)Cc2c[nH]c3ccc(F)cc23)ccc1F` [Example 470, (S)—N-(1-(3-(3-amino-4-fluorophenyl)pyridin-2-yl)-2-(3,5-difluorophenyl)ethyl)-2-(5-fluoro-1H-indol-3-yl)acetamide]: 68% and 20800 nM.
Taken in the same sequence, the figures for `NC(=O)c1cc(-c2cccnc2[C@H](Cc2cc(F)cc(F)c2)NC(=O)Cn2ncc3c2CCCC3)ccc1F` [Example 471, (S)-5-(2-(2-(3,5-difluorophenyl)-1-(2-(4,5,6,7-tetrahydro-1H-indazol-1-yl)acetamido)ethyl)pyridin-3-yl)-2-fluorobenzamide] were 62% and above 53200 nM.
Take `CC(=O)Nc1cc(-c2cccnc2[C@H](Cc2cc(F)cc(F)c2)NC(=O)Cc2c[nH]c3ccc(F)cc23)ccc1F` [Example 473, (S)—N-(1-(3-(3-acetamido-4-fluorophenyl)pyridin-2-yl)-2-(3,5-difluorophenyl)ethyl)-2-(5-fluoro-1H-indol-3-yl)acetamide]: the inhibition at 2 µM in the series with HIV-IIIb was found to be 18%. In addition, the midpoint of cytotoxicity in “in vitro” (setting [1]), the CC50 at 5 days, lay at 14600 nM.
Turning to `O=C(Cn1nc(C(F)(F)F)c2c1CCCC2)NC(Cc1cc(F)cc(F)c1)c1nccnc1-c1ccc(Cl)cc1` (stereo not shown) [Example 474, N-(1-(3-(4-chlorophenyl)pyrazin-2-yl)-2-(3,5-difluorophenyl)ethyl)-2-(3-(trifluoromethyl)-4,5,6,7-tetrahydro-1H-indazol-1-yl)acetamide], the inhibition at 2 µM in the series on HIV-IIIb was found to be 17%. Also, the CC50 at 5 days in the series “in vitro” (setting [1]) came out at 9980 nM.
As to `Cc1cc2ncn(CC(=O)NC(Cc3cc(F)cc(F)c3)c3nccnc3-c3ccc(Cl)cc3)c2cc1C` (stereo not shown) [Example 475, N-(1-(3-(4-chlorophenyl)pyrazin-2-yl)-2-(3,5-difluorophenyl)ethyl)-2-(5,6-dimethyl-1H-benzo[d]imidazol-1-yl)acetamide], in the series with HIV-IIIb, the inhibition at 2 µM was 23%. Moreover, the CC50 at 5 days in the series “in vitro” (setting [1]) amounted to 20400 nM.
Regarding `NC(=O)c1cc(-c2cccnc2[C@H](Cc2cc(F)cc(F)c2)NC(=O)C2(c3ccccc3)CC2)ccc1F` [Example 477, (S)-5-(2-(2-(3,5-difluorophenyl)-1-(1-phenylcyclopropanecarboxamido)ethyl)pyridin-3-yl)-2-fluorobenzamide], in the series on HIV-IIIb, the inhibition at 2 µM stood at 0%. This compound also came in with a CC50 at 5 days in “in vitro” (setting [1]) of 21400 nM.
`NC(=O)c1cccc(-c2cccnc2[C@H](Cc2cc(F)cc(F)c2)NC(=O)Cc2c[nH]c3ccccc23)c1` [Example 480, (S)-3-(2-(1-(2-(1H-indol-3-yl)acetamido)-2-(3,5-difluorophenyl)ethyl)pyridin-3-yl)benzamide]: the inhibition at 2 µM in the series on HIV-IIIb came to 93%. In the series “in vitro” (setting [1]), this compound returned a CC50 at 5 days of 27800 nM.
For `Cc1cccc2[nH]cc(CC(=O)N[C@@H](Cc3cc(F)cc(F)c3)c3ncccc3-c3cccc(C(N)=O)c3)c12` [Example 481, (S)-3-(2-(2-(3,5-difluorophenyl)-1-(2-(4-methyl-1H-indol-3-yl)acetamido)ethyl)pyridin-3-yl)benzamide], in the series on HIV-IIIb, the inhibition at 2 µM came to 53%. Moreover, the midpoint of cytotoxicity in the series “in vitro” (setting [1]), the CC50 at 5 days, lay at 22900 nM.
The matching figures for `Cc1cc2cnn(CC(=O)N[C@@H](Cc3cc(F)cc(F)c3)c3ncccc3-c3ccc(F)c(C(N)=O)c3)c2cc1C` [Example 485, (S)-5-(2-(2-(3,5-difluorophenyl)-1-(2-(5,6-dimethyl-1H-indazol-1-yl)acetamido)ethyl)pyridin-3-yl)-2-fluorobenzamide]: 43% and 22200 nM.
Take `CC(=O)c1c(C)n(CC(=O)N[C@@H](Cc2cc(F)cc(F)c2)c2ncccc2-c2ccc(Cl)cc2)c2ccccc12` [Example 486, (S)-2-(3-acetyl-2-methyl-1H-indol-1-yl)-N-(1-(3-(4-chlorophenyl)pyridin-2-yl)-2-(3,5-difluorophenyl)ethyl)acetamide]: in the series on HIV-IIIb, the inhibition at 2 µM is 76%. In “in vitro” (human, CC50 (nM), uninfected MT-4 cells, same protocol as Test A, CellTiter-Glo), this compound gave a CC50 at 5 days of 7080 nM.
Turning to `O=C1Cc2c(cccc2-c2cccnc2[C@H](Cc2cc(F)cc(F)c2)NC(=O)Cn2nc(C(F)F)c3c2C(F)(F)CCC3(F)F)N1` [Example 489D, (S)-2-(3-(difluoromethyl)-4,4,7,7-tetrafluoro-4,5,6,7-tetrahydro-1H-indazol-1-yl)-N-(2-(3,5-difluorophenyl)-1-(3-(2-oxoindolin-4-yl)pyridin-2-yl)ethyl)acetamide], the inhibition at 2 µM in the series on HIV-IIIb was 97%. Moreover, the CC50 at 5 days in the series “in vitro” (setting [1]) is 20800 nM.
The matching figures for `O=C(Cn1nc(C(F)F)c2c1C(F)(F)CCC2(F)F)N[C@@H](Cc1cc(F)cc(F)c1)c1ncccc1-c1ccc2ccc(=O)[nH]c2c1` [Example 490D, (S)-2-(3-(difluoromethyl)-4,4,7,7-tetrafluoro-4,5,6,7-tetrahydro-1H-indazol-1-yl)-N-(2-(3,5-difluorophenyl)-1-(3-(2-oxo-1,2-dihydroquinolin-7-yl)pyridin-2-yl)ethyl)acetamide]: 87% and 38000 nM.
On to `NCc1ccc2[nH]cc(CC(=O)N[C@@H](Cc3cc(F)cc(F)c3)c3ncccc3-c3ccc(Cl)cc3)c2c1` [Example 491F, (S)-2-(5-(aminomethyl)-1H-indol-3-yl)-N-(1-(3-(4-chlorophenyl)pyridin-2-yl)-2-(3,5-difluorophenyl)ethyl)acetamide], for which the inhibition at 2 µM with HIV-IIIb was determined as 18%. It took 7850 nM to reach half-maximal cytotoxicity in “in vitro” (setting [1]) (CC50 at 5 days).
The matching figures for `NC(=O)c1cc(-c2cccnc2[C@H](Cc2cc(F)cc(F)c2)NC(=O)Cn2nc(C(F)(F)F)c3c2CCC3=O)ccc1F` [Example 492B, (S)-5-(2-(2-(3,5-difluorophenyl)-1-(2-(4-oxo-3-(trifluoromethyl)-5,6-dihydrocyclopenta[c]pyrazol-1(4H)-yl)acetamido)ethyl)pyridin-3-yl)-2-fluorobenzamide]: 2% and above 53200 nM.
Regarding `Cc1c(C(F)F)nn(CC(=O)N[C@@H](Cc2cc(F)cc(F)c2)c2ncccc2-c2ccc(F)c(C(N)=O)c2)c1C(F)F` [Example 493, (S)-5-(2-(1-(2-(3,5-bis(difluoromethyl)-4-methyl-1H-pyrazol-1-yl)acetamido)-2-(3,5-difluorophenyl)ethyl)pyridin-3-yl)-2-fluorobenzamide], the inhibition at 2 µM in the series on HIV-IIIb came to 48%. In the series “in vitro” (setting [1]), this compound returned a CC50 at 5 days of 33900 nM.
